Target: T1, Full-length USP19 (Homo sapiens, UniProt O94966)
T1 construct: Full-length USP19 was purchased from Boston Biochem (E-576); purchased Boston Biochem E-576
T1 sequence (O94966 1-1318): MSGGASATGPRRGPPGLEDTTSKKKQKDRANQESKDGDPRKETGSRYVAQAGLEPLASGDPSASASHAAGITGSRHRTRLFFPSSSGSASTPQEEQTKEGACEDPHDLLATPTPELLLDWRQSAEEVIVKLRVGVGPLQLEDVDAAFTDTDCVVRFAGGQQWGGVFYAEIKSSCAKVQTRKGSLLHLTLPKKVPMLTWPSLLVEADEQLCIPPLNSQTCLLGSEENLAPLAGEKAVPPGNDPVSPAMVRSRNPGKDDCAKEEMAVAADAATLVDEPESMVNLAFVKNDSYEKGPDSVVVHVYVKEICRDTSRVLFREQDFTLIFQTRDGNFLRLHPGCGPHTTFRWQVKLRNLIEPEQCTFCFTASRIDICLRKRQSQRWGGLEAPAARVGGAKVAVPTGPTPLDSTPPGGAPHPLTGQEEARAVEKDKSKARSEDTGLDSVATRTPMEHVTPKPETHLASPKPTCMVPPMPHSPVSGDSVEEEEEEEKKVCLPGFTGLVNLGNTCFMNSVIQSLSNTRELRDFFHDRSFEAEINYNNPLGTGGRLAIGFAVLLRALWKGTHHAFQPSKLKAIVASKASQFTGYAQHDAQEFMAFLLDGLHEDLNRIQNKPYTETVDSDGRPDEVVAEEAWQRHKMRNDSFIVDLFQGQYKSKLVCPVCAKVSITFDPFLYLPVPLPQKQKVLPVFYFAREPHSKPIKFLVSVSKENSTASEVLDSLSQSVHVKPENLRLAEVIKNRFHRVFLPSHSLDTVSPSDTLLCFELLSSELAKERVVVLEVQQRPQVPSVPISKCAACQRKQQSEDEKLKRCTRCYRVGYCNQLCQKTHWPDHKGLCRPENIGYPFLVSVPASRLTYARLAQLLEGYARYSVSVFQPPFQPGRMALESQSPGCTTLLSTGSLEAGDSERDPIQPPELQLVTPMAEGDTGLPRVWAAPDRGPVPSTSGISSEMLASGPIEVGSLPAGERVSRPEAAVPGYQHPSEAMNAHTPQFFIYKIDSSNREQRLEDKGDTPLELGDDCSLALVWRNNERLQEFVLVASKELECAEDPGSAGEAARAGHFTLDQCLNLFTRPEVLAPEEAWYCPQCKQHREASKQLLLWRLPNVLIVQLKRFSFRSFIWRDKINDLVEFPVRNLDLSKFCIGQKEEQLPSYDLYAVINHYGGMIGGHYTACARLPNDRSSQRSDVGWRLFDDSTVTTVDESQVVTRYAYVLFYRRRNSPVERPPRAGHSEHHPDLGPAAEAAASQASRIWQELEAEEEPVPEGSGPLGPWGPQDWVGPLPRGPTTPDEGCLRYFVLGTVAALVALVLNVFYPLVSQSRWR
Experiment: USP19 fluorescence polarisation (FP) homogeneous assay with Ubiquitin-Lys-TAMRA substrate
Format: biochemical
Details: 2.5 nM USP19, 30 min pre-incubation, average of at least two duplicate experiments
How it was run: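 Full-length USP19 preincubated 30 min at RT with inhibitor (200 μM to 2 μM series, 8–18 points) before adding 500 nM Ubiquitin-Lys-TAMRA substrate.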

Compound	IC50
C[C@H](CC(F)(F)F)C(=O)N1CCC(O)(CN2CCN(C3CCC(C)(C)CC3)CC2=O)C2(CCCC2)C1 (stereo partly drawn) [Example 116, 4-(4,4-Dimethylcyclohexyl)-1-((10-hydroxy-7-((R)-4,4,4-trifluoro-2-methylbutanoyl)-7-azaspiro[4.5]decan-10-yl)methyl)Piperazin-2-one]	5 to 50 µM
O=C1COCCN1CC1(O)CCN(C(=O)N2CCOC[C@H]2c2ccccc2)CC12CCCC2 (stereo partly drawn) [Example 117, 4-((10-Hydroxy-7-((R)-3-phenylmorpholine-4-carbonyl)-7-azaspiro[4.5]decan-10-yl)methyl)morpholin-3-one]	5 to 50 µM
COc1ccc2ccn(CC3(O)CCN(C(=O)[C@H](C)CC(F)(F)F)CC34CCCC4)c(=O)c2c1 (stereo partly drawn) [Example 122, 2-((10-Hydroxy-7-((R)-4,4,4-trifluoro-2-methylbutanoyl)-7-azaspiro[4.5]decan-10-yl)methyl)-7-methoxyisoquinolin-1(2H)-one]	50 to 250 µM
C[C@H](CC(F)(F)F)C(=O)N1CCC(O)(Cn2cnc3sccc3c2=O)C2(CCCC2)C1 (stereo partly drawn) [Example 123, 3-((10-Hydroxy-7-((R)-4,4,4-trifluoro-2-methylbutanoyl)-7-azaspiro[4.5]decan-10-yl)methyl)thieno[2,3-d]pyrimidin-4(3H)-one]	50 to 250 µM
C[C@H](CC(F)(F)F)C(=O)N1CCC(O)(Cn2ccc3cc(C(F)(F)F)ccc3c2=O)C2(CCCC2)C1 (stereo partly drawn) [Example 126, 2-((10-Hydroxy-7-((R)-4,4,4-trifluoro-2-methylbutanoyl)-7-azaspiro[4.5]decan-10-yl)methyl)-6-(trifluoromethyl)isoquinolin-1(2H)-one]	5 to 50 µM
C[C@H](CC1CCCCC1)C(=O)N1CCC(O)(Cn2cnc3cc(Cl)ccc3c2=O)C2(CCCC2)C1 (stereo partly drawn) [Example 129, 7-Chloro-3-((7-((R)-3-cyclohexyl-2-methylpropanoyl)-10-hydroxy-7-azaspiro[4.5]decan-10-yl)methyl)quinazolin-4(3H)-one]	0.5 to 5 µM
C[C@H](CC(F)(F)F)C(=O)N1CCC(O)(Cn2cc(C(=O)N(C)C)c3ccccc3c2=O)C2(CCCC2)C1 (stereo partly drawn) [Example 130, 2-((10-Hydroxy-7-((R)-4,4,4-trifluoro-2-methylbutanoyl)-7-azaspiro[4.5]decan-10-yl)methyl)-N,N-dimethyl-1-oxo-1,2-dihydroisoquinoline-4-carboxamide]	50 to 250 µM
C[C@H](CC1CCCCC1)C(=O)N1CCC(O)(Cn2cnc3c(F)cccc3c2=O)C2(CCCC2)C1 (stereo partly drawn) [Example 131, 3-((7-((R)-3-Cyclohexyl-2-methylpropanoyl)-10-hydroxy-7-azaspiro[4.5]decan-10-yl)methyl)-8-fluoroquinazolin-4(3H)-one]	0.5 to 5 µM
C[C@H](CC1CCCCC1)C(=O)N1CCC(O)(Cn2cnc3sccc3c2=O)C2(CCCC2)C1 (stereo partly drawn) [Example 132, 3-((7-((R)-3-Cyclohexyl-2-methylpropanoyl)-10-hydroxy-7-azaspiro[4.5]decan-10-yl)methyl)thieno[2,3-d]pyrimidin-4(3H)-one]	0.5 to 5 µM
COc1ccc2c(=O)n(CC3(O)CCN(C(=O)[C@H](C)CC(F)(F)F)CC34CCCC4)cnc2c1 (stereo partly drawn) [Example 133, 3-((10-Hydroxy-7-((R)-4,4,4-trifluoro-2-methylbutanoyl)-7-azaspiro[4.5]decan-10-yl)methyl)-7-methoxyquinazolin-4(3H)-one]	5 to 50 µM
C[C@H](CC(F)(F)F)C(=O)N1CCC(O)(Cn2cnc3cc(Cl)ccc3c2=O)C2(CCCC2)C1 (stereo partly drawn) [Example 134, 7-Chloro-3-((10-hydroxy-7-((R)-4,4,4-trifluoro-2-methylbutanoyl)-7-azaspiro[4.5]decan-10-yl)methyl)quinazolin-4(3H)-one]	5 to 50 µM

Further lines, results first:

IC50	Compound
< 0.5 µM	C[C@H](CC(F)(F)F)C(=O)N1CCC(O)(CN2CCN(c3ccccn3)CC2=O)C2(CCCC2)C1 (stereo partly drawn) [Example 113, 1-((10-Hydroxy-7-((R)-4,4,4-trifluoro-2-methylbutanoyl)-7-azaspiro[4.5]decan-10-yl)methyl)-4-(pyridin-2-yl)piperazin-2-one]
0.5 to 5 µM	C[C@H](CC1CCCCC1)C(=O)N1CCC(O)(CN2CCN(C)CC2=O)C2(CCCC2)C1 (stereo partly drawn) [Example 114, 1-((7-((R)-3-Cyclohexyl-2-methylpropanoyl)-10-hydroxy-7-azaspiro[4.5]decan-10-yl)methyl)-4-methylpiperazin-2-one]
0.5 to 5 µM	CC1(C)CCC(N2CCN(CC3(O)CCN(C(=O)NCc4ccccc4)CC34CCCC4)C(=O)C2)CC1 (stereo not shown) [Example 115, N-Benzyl-10-((4-(4,4-dimethylcyclohexyl)-2-oxopiperazin-1-yl)methyl)-10-hydroxy-7-azaspiro[4.5]decane-7-carboxamide]
0.5 to 5 µM	O=C1COCCN1CC1(O)CCN(C(=O)N2CCNC[C@H]2c2ccccc2)CC12CCCC2 (stereo partly drawn) [Example 118, 4-((10-Hydroxy-7-((R)-2-phenylpiperazine-1-carbonyl)-7-azaspiro[4.5]decan-10-yl)methyl)morpholin-3-one]
0.5 to 5 µM	O=C1Cn2ccnc2CN1CC1(O)CCN(C(=O)N2CCNC[C@H]2c2ccccc2)CC12CCCC2 (stereo partly drawn) [Example 119, 7-((10-Hydroxy-7-((R)-2-phenylpiperazine-1-carbonyl)-7-azaspiro[4.5]decan-10-yl)methyl)-7,8-dihydroimidazo[1,2-a]pyrazin-6(5H)-one]
0.5 to 5 µM	Cc1nc2ccccc2c(=O)n1CC1(O)CCN(C(=O)[C@H](C)CC2CCCCC2)CC12CCCC2 (stereo partly drawn) [Example 120, 3-((7-((R)-3-Cyclohexyl-2-methylpropanoyl)-10-hydroxy-7-azaspiro[4.5]decan-10-yl)methyl)-2-methylquinazolin-4(3H)-one]
0.5 to 5 µM	C[C@H](CC1CCCCC1)C(=O)N1CCC(O)(Cn2ccc3ccc(F)cc3c2=O)C2(CCCC2)C1 (stereo partly drawn) [Example 121, 2-((7-((R)-3-Cyclohexyl-2-methylpropanoyl)-10-hydroxy-7-azaspiro[4.5]decan-10-yl)methyl)-7-fluoroisoquinolin-1(2H)-one]
< 0.5 µM	CCn1ncc2c(=O)n(CC3(O)CCN(C(=O)[C@H](C)CC4CCCCC4)CC34CCCC4)cnc21 (stereo partly drawn) [Example 124, 5-((7-((R)-3-Cyclohexyl-2-methylpropanoyl)-10-hydroxy-7-azaspiro[4.5]decan-10-yl)methyl)-1-ethyl-1,5-dihydro-4H-pyrazolo[3,4-d]pyrimidin-4-one]
0.5 to 5 µM	Cc1cccc2c(=O)n(CC3(O)CCN(C(=O)[C@H](C)CC4CCCCC4)CC34CCCC4)cnc12 (stereo partly drawn) [Example 125, 3-((7-((R)-3-Cyclohexyl-2-methylpropanoyl)-10-hydroxy-7-azaspiro[4.5]decan-10-yl)methyl)-8-methylquinazolin-4(3H)-one]
0.5 to 5 µM	COc1ccc2ccn(CC3(O)CCN(C(=O)[C@H](C)CC4CCCCC4)CC34CCCC4)c(=O)c2c1 (stereo partly drawn) [Example 127, 2-((7-((R)-3-Cyclohexyl-2-methylpropanoyl)-10-hydroxy-7-azaspiro[4.5]decan-10-yl)methyl)-7-methoxyisoquinolin-1(2H)-one]
0.5 to 5 µM	C[C@H](CC1CCCCC1)C(=O)N1CCC(O)(Cn2cnc3ccccc3c2=O)C2(CCCC2)C1 (stereo partly drawn) [Example 128, 3-((7-((R)-3-Cyclohexyl-2-methylpropanoyl)-10-hydroxy-7-azaspiro[4.5]decan-10-yl)methyl)quinazolin-4(3H)-one]

Source: patent US20220033397A1, “PHARMACEUTICAL COMPOUNDS AND THEIR USE AS INHIBITORS OF UBIQUITIN SPECIFIC PROTEASE 19 (USP19)” (ALMAC DISCOVERY LIMITED, priority 2018, published 2022)
